How the values were obtained:
[1] = Cmax in Fischer 344 rat at 50 mg/kg, po; assay type: ADME, organism-based; parameters: dose 50 mg/kg, route oral; conditions: in vivo
[2] = in vitro; conditions: human, Caco-2
Description: Apparent permeability from apical to basolateral side of the human Caco-2 cells

[3] = Apparent elimination half life in Fischer 344 rat at 50 mg/kg, po; assay type: ADME, organism-based; parameters: dose 50 mg/kg, route oral; conditions: in vivo, read-out: beta t1/2 (converted)
[4] = tested on: Rattus norvegicus; test: AUC in Fischer 344 rat at 50 mg/kg, po; assay type: ADME, organism-based, Plasma; parameters: dose 50 mg/kg, route oral; conditions: in vivo
[5] = Tmax in Fischer 344 rat at 50 mg/kg, po; assay type: ADME, organism-based; parameters: dose 50 mg/kg, route oral; conditions: in vivo
[6] = tested on: Rattus norvegicus; test: Oral bioavailability in Fischer 344 rat at 50 mg/kg; assay type: ADME, organism-based; conditions: in vivo
[7] = Apparent oral clearance in Sprague-Dawley rat at 30 mg/kg, po; assay type: ADME, organism-based; parameters: dose 30 mg/kg, route oral; conditions: in vivo
[8] = Volume of distribution at steady state in Sprague-Dawley rat at 5 mg/kg, iv; assay type: ADME, organism-based; parameters: dose 5 mg/kg, route intravenous; conditions: in vivo, read-out: Vdss
[9] = Metabolic stability in human liver microsomes assessed as systemic clearance at 1 uM after 15 mins by LC-MS/MS analysis; assay type: ADME, Microsome
[10] = Drug level in Sprague-Dawley rat brain at 30 mg/kg, po after 1 hr; assay type: ADME, organism-based; parameters: dose 30 mg/kg, route oral; conditions: read-out: Drug uptake
[11] = Ratio of drug level in brain to plasma in Sprague-Dawley rat at 30 mg/kg, po after 4 hrs; assay type: ADME, organism-based; parameters: dose 30 mg/kg, route oral
[12] = Cmax in Sprague-Dawley rat at 30 mg/kg, po; assay type: ADME, organism-based; parameters: dose 30 mg/kg, route oral; conditions: in vivo
[13] = Bioavailability in Sprague-Dawley rat at 5 mg/kg, iv; assay type: ADME, organism-based; conditions: in vivo
[14] = biological target: T1, Transporter (Rattus norvegicus, UniProt Q63380); test: biochemical
Description: Displacement of Levo[ring-2,5,6-3H]norepinephrine from rat synaptosomal NET expressed in HEK293 cells by microplate scintillation counter

[15] = tested on: Rattus norvegicus; test: Reversal of pin-prick-induced neuropathic mechanical hyperalgesia in Harlan Sprague-Dawley rat sciatic nerve ligation model at 30 mg/kg, po; assay type: functional
[16] = Half life in Sprague-Dawley rat at 5 mg/kg, iv; assay type: ADME, organism-based; parameters: dose 5 mg/kg, route intravenous; conditions: in vivo
[17] = AUC in Sprague-Dawley rat at 30 mg/kg, po; assay type: ADME, organism-based; parameters: dose 30 mg/kg, route oral; conditions: plasma
[18] = Tmax in Sprague-Dawley rat at 30 mg/kg, po; assay type: ADME, organism-based; parameters: dose 30 mg/kg, route oral; conditions: in vivo
[19] = physchem
Description: Dissociation constant, pKa of the compound

[20] = Mean residence time in Sprague-Dawley rat at 5 mg/kg, iv; assay type: ADME, organism-based; parameters: dose 5 mg/kg, route intravenous; conditions: in vivo
[21] = biological target: Cytochrome P450 2D6 (Homo sapiens, UniProt P10635); test: Inhibition of CYP2D6; assay type: ADME
[22] = Drug level in Sprague-Dawley rat brain at 30 mg/kg, po after 4 hrs; assay type: ADME, organism-based; parameters: dose 30 mg/kg, route oral; conditions: read-out: Drug uptake
[23] = biological target: Sodium-dependent dopamine transporter (Homo sapiens, UniProt Q01959); test: biochemical
Description: Displacement of 3,4-[ring-2,5,6-3H]dihydroxyphenylethylamine from human cloned DAT expressed in HEK293 cells by microplate scintillation counter

[24] = Renal clearance in Sprague-Dawley rat at 5 mg/kg, iv; assay type: ADME, organism-based, Kidney; parameters: dose 5 mg/kg, route intravenous; conditions: in vivo, read-out: CL_renal
[25] = Lipophilicity, log D of the compound; assay type: physicochemical; conditions: octanol/water
[26] = Ratio of drug level in brain to plasma in Sprague-Dawley rat at 30 mg/kg, po after 1 hr; assay type: ADME, organism-based; parameters: dose 30 mg/kg, route oral
[27] = Partition coefficient, log P of the compound; assay type: physicochemical; conditions: octanol/water
[28] = Metabolic stability in rat liver microsomes assessed as systemic clearance at 1 uM after 15 mins by LC-MS/MS analysis; assay type: ADME, Microsome
[29] = biological target: Sodium-dependent serotonin transporter (Homo sapiens, UniProt P31645); test: biochemical
Description: Displacement of [alpha,beta-3H(N)]-5-hydroxytryptamine from human cloned SERT expressed in HEK293 cells by microplate scintillation counter

[30] = biological target: T2, Sodium-dependent serotonin transporter (Rattus norvegicus, UniProt P31652); assay type: cell-based, HEK293
[31] = AUC in Sprague-Dawley rat at 5 mg/kg, iv; assay type: ADME, organism-based; parameters: dose 5 mg/kg, route intravenous; conditions: plasma
[32] = biological target: Sodium-dependent noradrenaline transporter (Homo sapiens, UniProt P23975); test: biochemical
Description: Displacement of Levo[ring-2,5,6-3H]norepinephrine from human cloned NET expressed in HEK293 cells by microplate scintillation counter

[33] = Plasma clearance in Sprague-Dawley rat at 5 mg/kg, iv; assay type: ADME, organism-based; parameters: dose 5 mg/kg, route intravenous
[34] = Apparent elimination half life in Sprague-Dawley rat at 30 mg/kg, po; assay type: ADME, organism-based; parameters: dose 30 mg/kg, route oral; conditions: in vivo, read-out: beta t1/2 (converted)
[35] = tested on: Rattus norvegicus; test: Antinociceptive activity in CD rat assessed as reduction in number of hind paw flinching at 60 mg/kg, po by formalin test; assay type: functional; parameters: scale not given: the % may be the effect or the level left
[36] = biological target: Sodium-dependent dopamine transporter (Rattus norvegicus, UniProt P23977); test: biochemical
Description: Displacement of 3,4-[ring-2,5,6-3H]dihydroxyphenylethylamine from rat synaptosomal DAT expressed in HEK293 cells by microplate scintillation counter

[37] = Volume of distribution in Sprague-Dawley rat at 5 mg/kg, iv; assay type: ADME, organism-based; parameters: dose 5 mg/kg, route intravenous; conditions: in vivo
[38] = biological target: T2, Sodium-dependent serotonin transporter; test: Inhibition of radiolabeled serotonin uptake from rat brain SERT
[39] = Oral bioavailability in human; assay type: ADME, organism-based; conditions: in vivo
[40] = biological target: T1, Transporter
Description: Inhibition of radiolabeled noradrenaline uptake from rat brain NET

[41] = Drug excretion in human urine; assay type: ADME; conditions: read-out: Activity

T2 sequence (P31652 whole entry): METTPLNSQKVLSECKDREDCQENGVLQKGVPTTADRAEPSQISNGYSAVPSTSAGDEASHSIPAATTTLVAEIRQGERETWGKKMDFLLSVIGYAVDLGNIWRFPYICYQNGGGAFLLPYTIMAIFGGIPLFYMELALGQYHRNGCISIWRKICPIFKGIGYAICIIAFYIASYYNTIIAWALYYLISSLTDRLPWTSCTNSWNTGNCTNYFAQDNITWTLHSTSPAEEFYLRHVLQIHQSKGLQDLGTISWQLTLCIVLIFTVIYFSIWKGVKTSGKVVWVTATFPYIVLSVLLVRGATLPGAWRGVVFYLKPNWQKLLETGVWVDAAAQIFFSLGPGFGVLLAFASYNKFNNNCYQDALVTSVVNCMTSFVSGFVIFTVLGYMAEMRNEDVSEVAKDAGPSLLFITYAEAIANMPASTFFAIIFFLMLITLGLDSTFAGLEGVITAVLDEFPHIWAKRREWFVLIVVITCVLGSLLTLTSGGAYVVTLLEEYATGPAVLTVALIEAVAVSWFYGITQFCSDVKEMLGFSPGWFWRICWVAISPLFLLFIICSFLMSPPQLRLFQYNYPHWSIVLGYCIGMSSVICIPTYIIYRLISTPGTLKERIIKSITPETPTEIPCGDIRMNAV
T1 sequence (Q63380 whole entry): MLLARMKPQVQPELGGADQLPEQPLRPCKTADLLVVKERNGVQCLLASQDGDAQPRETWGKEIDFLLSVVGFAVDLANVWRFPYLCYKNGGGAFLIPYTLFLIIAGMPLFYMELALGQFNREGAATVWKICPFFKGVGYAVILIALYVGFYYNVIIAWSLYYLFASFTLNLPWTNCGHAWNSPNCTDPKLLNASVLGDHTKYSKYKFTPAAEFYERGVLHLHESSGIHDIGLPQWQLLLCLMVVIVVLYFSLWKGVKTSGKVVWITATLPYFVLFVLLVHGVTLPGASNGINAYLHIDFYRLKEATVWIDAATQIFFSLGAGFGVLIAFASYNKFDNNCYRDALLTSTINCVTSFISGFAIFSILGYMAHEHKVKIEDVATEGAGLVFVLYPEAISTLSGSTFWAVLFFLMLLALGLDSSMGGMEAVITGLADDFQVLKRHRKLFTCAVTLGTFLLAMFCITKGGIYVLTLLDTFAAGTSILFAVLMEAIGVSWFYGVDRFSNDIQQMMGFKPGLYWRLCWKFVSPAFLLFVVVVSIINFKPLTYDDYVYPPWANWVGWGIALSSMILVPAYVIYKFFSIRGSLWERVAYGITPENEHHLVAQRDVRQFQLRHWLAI
Sequence of Sodium-dependent dopamine transporter (Rattus norvegicus, UniProt P23977) (P23977 whole entry): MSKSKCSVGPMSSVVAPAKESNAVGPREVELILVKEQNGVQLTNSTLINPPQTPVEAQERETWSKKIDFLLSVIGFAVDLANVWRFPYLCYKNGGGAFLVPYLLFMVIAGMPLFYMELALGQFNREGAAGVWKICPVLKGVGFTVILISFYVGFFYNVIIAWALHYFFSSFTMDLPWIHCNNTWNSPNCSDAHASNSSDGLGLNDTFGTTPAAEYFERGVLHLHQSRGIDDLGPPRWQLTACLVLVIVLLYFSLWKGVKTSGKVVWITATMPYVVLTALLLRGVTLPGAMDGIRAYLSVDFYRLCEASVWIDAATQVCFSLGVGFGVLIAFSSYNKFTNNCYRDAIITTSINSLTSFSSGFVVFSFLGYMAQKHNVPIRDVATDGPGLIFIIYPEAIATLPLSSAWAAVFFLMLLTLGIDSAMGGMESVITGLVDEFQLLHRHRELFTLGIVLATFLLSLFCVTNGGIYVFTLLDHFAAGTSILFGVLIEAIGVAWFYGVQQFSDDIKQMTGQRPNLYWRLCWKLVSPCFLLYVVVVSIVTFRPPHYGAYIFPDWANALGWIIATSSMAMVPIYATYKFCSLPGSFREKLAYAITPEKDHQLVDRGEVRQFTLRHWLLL
Sequence of Cytochrome P450 2D6 (P10635 whole entry): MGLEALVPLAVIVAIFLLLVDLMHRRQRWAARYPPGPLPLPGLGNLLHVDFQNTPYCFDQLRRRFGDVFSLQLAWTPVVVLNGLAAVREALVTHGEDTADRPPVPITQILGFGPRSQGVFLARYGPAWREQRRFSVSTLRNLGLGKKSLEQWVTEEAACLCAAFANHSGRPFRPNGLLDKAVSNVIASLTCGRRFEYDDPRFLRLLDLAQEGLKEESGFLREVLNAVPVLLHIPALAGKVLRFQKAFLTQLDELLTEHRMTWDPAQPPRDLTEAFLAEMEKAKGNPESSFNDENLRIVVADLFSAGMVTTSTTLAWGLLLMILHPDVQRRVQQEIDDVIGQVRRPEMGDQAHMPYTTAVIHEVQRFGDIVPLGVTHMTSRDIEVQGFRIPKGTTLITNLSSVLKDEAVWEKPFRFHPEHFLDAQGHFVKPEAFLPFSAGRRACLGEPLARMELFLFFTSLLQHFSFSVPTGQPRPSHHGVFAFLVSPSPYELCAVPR
Sequence of Sodium-dependent noradrenaline transporter (P23975 whole entry): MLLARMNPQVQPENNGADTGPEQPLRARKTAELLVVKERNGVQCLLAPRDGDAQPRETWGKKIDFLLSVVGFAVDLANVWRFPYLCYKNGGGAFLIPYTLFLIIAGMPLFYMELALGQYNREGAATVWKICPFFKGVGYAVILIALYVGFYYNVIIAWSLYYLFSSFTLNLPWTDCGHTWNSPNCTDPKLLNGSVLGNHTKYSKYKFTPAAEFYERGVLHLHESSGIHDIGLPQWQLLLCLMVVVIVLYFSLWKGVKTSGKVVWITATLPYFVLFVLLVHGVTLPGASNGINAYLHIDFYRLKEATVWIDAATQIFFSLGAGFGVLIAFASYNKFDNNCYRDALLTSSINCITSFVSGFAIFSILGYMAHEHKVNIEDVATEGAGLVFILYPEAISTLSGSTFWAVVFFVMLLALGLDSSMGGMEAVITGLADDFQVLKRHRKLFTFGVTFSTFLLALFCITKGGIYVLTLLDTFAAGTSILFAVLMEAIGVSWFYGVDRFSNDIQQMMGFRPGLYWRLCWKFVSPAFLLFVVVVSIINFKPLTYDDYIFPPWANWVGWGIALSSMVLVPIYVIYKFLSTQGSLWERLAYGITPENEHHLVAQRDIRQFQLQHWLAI
Sequence of Sodium-dependent serotonin transporter (Homo sapiens, UniProt P31645) (P31645 whole entry): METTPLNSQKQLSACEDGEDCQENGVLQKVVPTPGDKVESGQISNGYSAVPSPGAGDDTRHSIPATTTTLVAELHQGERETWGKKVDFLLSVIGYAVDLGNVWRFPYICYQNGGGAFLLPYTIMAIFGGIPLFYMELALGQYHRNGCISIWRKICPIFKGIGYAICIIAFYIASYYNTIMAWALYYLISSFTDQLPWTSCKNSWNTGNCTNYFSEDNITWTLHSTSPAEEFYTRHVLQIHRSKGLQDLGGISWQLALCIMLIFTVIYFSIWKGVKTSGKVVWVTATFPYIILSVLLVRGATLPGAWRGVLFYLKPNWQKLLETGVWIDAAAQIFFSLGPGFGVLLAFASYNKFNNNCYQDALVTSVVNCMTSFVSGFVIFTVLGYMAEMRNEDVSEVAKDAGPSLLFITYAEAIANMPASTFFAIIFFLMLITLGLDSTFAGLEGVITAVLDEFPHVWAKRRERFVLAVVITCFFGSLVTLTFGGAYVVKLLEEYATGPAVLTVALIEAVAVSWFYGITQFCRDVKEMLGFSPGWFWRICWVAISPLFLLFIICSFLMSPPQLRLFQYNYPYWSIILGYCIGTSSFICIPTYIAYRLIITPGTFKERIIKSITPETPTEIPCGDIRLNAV
Sequence of Sodium-dependent dopamine transporter (Homo sapiens, UniProt Q01959) (Q01959 whole entry): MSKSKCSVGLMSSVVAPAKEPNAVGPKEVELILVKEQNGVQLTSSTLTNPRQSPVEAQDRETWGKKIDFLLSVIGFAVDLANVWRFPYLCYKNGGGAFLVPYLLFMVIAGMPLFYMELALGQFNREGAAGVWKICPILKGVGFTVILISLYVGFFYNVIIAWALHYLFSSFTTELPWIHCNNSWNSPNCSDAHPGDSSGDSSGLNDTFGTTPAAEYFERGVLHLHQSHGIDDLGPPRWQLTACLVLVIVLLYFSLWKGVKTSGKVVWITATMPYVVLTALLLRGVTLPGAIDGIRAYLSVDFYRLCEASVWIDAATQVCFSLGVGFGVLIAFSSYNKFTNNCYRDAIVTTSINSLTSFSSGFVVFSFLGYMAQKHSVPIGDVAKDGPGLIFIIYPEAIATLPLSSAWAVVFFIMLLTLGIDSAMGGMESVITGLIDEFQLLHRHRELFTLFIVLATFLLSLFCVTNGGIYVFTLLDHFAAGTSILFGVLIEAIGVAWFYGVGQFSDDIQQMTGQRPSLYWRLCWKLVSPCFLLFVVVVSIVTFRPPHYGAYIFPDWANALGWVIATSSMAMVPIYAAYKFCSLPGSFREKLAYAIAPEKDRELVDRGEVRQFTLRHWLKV

In the case of `CNCC[C@@H](Oc1ccccc1C)c1ccccc1` [ATOMOXETINE], the Cmax [1] is reported as 170 ng/mL, the Papp A→B [2] is reported as 43.7 ×10⁻⁶ cm/s and the half-life [3] is reported as 168 min. The AUC [4] was 910 ng·h/mL, the Tmax [5] was 2 h and the F [6] was 1.5%.
With `C=CCN(CC=C)C(=O)[C@@]1(c2cccs2)C[C@H]1CN` the CL/F [7] was 444 mL/min/kg, the Vd [8] was 4.4 L/kg and the CLhep predicted at 1 µM [9] was 9.9 mL/min/kg. The concentration at 1 h [10] was 127 ng/g, the Kp at 4 h [11] was 1.4 and the Cmax [12] was 522 ng/mL. For the same compound, the bioavailability [13] was 12%, the Papp A→B [2] was 16.7 ×10⁻⁶ cm/s and the IC50 [14] was 4.6 nM. It also gave an Activity [15] of 60%, a half-life [16] of 36 min and an AUC [17] of 1130 ng·h/mL. For the same compound, the Tmax [18] was 30 min, the pKa [19] was 9.4 and the MRT [20] was 42 min. The IC50 [21] was 6 µM, the concentration at 4 h [22] was 26 ng/g and the IC50 [23] was > 10 µM. It also gave a CL renal [24] of 11 mL/min/kg, a logD [25] of 0.3 and a Kp at 1 h [26] of 0.6. For the same compound, the logP [27] was 2, the CLhep predicted at 1 µM [28] was 61 mL/min/kg and the IC50 [29] was 32 nM. The IC50 [30] was 11 nM, the AUC [31] was 721 ng·h/mL and the IC50 [32] was 2.3 nM. It also gave a clearance [33] of 102 mL/min/kg, a half-life [34] of 72 min and an Activity [35] of 56%. The IC50 [36] was 19 µM and the Vd [37] was 5.3 L/kg.
`CCN(CC)C(=O)C1(c2ccccc2)CC1CN` (centres undefined) showed a CLhep predicted at 1 µM [9] of 3.1 mL/min/kg, an IC50 [38] of 203 nM and a pKa [19] of 9.5. It also gave a bioavailability [39] of 85%, a logD [25] of 0.2 and a logP [27] of 1.7. The CLhep predicted at 1 µM [28] was 24 mL/min/kg, the IC50 [40] was 100 nM and the dose excreted [41] was > 80%. It also gave an IC50 [30] of 47 nM and an IC50 [36] of 37 µM.

Source: ChEMBL document CHEMBL1152288, “Characterization of thien-2-yl 1S,2R-milnacipran analogues as potent norepinephrine/serotonin transporter inhibitors for the treatment of neuropathic pain” (J Med Chem, 2008)
